# Measured values from article PMC10844371 (Diabetologia, 2023).
# Several values for one entry are separate records, joined by “and”; a condition that tells them apart may be missing. Equal values may be shown once.
# What was measured:
# [1] = molecular target: T1, human GCGR expressed in HEK293T cells (Homo sapiens, UniProt P47871); experiment: G protein dissociation (TRUPATH BRET2 biosensor); assay type: cell-based
# T1 construct: expressed in transfected cells; host or cells: HEK293T (ATCC CRL-3216)
# T1 sequence (P47871 26-477): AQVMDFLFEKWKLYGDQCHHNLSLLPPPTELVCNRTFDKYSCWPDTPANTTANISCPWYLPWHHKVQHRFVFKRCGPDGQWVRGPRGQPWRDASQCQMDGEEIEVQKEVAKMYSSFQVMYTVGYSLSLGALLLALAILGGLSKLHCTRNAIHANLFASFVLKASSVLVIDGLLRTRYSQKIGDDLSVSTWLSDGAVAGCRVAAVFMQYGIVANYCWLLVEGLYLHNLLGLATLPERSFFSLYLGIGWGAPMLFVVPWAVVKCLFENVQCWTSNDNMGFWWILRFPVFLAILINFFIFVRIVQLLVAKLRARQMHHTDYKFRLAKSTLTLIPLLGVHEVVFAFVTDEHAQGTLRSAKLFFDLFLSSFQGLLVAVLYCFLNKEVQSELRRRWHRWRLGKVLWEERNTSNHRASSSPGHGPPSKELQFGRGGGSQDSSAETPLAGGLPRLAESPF
# Procedure: G protein dissociation was measured using the TRUPATH biosensor platform. TRUPATH constructs were obtained from Addgene (kit no. 1000000163 [21]). […] Cells were transfected with equal amounts of GCGR, GαsS-, Gαi1-, Gαi2-, Gαi3-, GαoA-, GαoB- or Gαz-Rluc8, Gβ3, and Gγ1-, Gγ8- or Gγ9-GFP2 (as described in [21]), and pcDNA3.1(‑) using polyethyleneimine (ESM Table 3). After 24 h, cells were seeded at 50,000 cells/well of a 0.01% poly-L-lysine-coated white 96-well plate (Greiner) and grown overnight. Cells were washed with Hanks’ Balanced Salt Solution (Lonza) buffered with 20 mmol/l HEPES (Sigma) and supplemented with 0.1% BSA (Sigma) (wt/vol.). Cells were incubated in 5 μmol/l coelenterazine 400a (Nanolight Technologies) for 5 min. […] The bioluminescence resonance energy transfer 2 (BRET2) ratio was calculated (λ515/λ400) and the time point corresponding to maximal dissociation was used to generate dose–response curves. pEC50 values were calculated using the ‘three parameter log(agonist) vs response’ model in GraphPad Prism9 (version 9.1.0; graphpad.com).
# mouse alpha cells = experiment: TIRF imaging of docked secretory granules in mouse alpha cells; assay type: cell-based
# Procedure: Cells were imaged using total internal reflection fluorescence (TIRF) microscopy (AxioObserver Z1 with a ×100/1.45 objective [Carl Zeiss] and a diode-pumped solid state laser at 491 nm). For these measurements, EC1 was used (ESM Table 2). Images from cells infected with preproglucagon promoter (PPPG)-neuropeptide Y (NPY)-enhanced green fluorescent protein (EGFP) virus were recorded using an electron-multiplying charge-coupled device camera (Photometrics Evolve) using ZEN blue. Single images of cells were acquired to measure the number of docked granules. Incoming and outgoing granules during visiting, docking and undocking were determined from multiple frame movies as described previously. Candidate docking or undocking events were found manually as granules that approached the TIRF field with an axial component and became laterally confined for at least two frames. We defined docking as granules that remained confined for at least 1 min. Visitors were those granules that remained for <1 min after appearing at the plasma membrane. Undocking was defined as slow movement of a previously docked granule away from its docking site. Granule density was calculated using a script that used the built-in ‘find maxima’ function in ImageJ (version 1.53c; http://rsbweb.nih.gov/ij) for spot detection.
# C57Bl6N mice = experiment: Plasma glucose and glucagon during insulin-induced hypoglycaemia; assay type: in vivo, mouse
# Procedure: In the experiments involving the use of REMD2.59, mice were injected intraperitoneally with the antagonist (5 mg/kg body weight in PBS) or vehicle 24 h prior to insulin-induced hypoglycaemia. Following the completion of the experiment, the mice were euthanised and the pancreases were resected and weighed.
# human pancreatic islets = experiment: Glucagon secretion in human islets (ELISA); assay type: cell-based
# Procedure: Human pancreatic islets were isolated (with ethical approval and clinical consent) as previously described. Islets from the pancreases of 18 healthy donors and five donors with type 2 diabetes were used (see electronic supplementary material [ESM] Table 1; ESM Human islets checklist).
# Mouse islets were used acutely, except for studies with PTX, wherein islets were treated overnight with the toxin. Human islets were maintained in culture for up to 48 h in RPMI medium containing 10% (vol./vol.) FCS, 1% (vol./vol.) penicillin/streptomycin and 5 mmol/l glucose. Experiments were conducted as previously described. Islets were incubated in 0.3 ml EC1 or EC2 media (ESM Table 2) supplemented with glucose and other reagents as indicated. Glucagon was determined by ELISA (Mercodia).
# All data are reported, unless otherwise stated, as mean values ± SEM for the indicated number of experiments using islets from multiple mice. For hormone release studies, islets were isolated and pooled from 4–16 mice. These islets were then subdivided into groups of 12–20 size-matched islets. Each unique set of islets counted as an experiment with the experiments repeated on 2–4 days. Similarly, each unique group of human islets was treated as an experiment. […] In the Ca^2+ imaging and granule docking experiment, each cell represents an experiment making sure that cells from multiple donors/animals were used. For the in vivo experiments and the perfused pancreas, each mouse count represents an experiment. For two groupings, a t test was conducted. For multiple comparisons, one-way ANOVA was conducted. All statistical tests were performed using Graphpad Prism (version 9.1.0; graphpad.com). It was ascertained that the data were normally distributed.
smiles,measurement,setting,value
CC[C@H](C)[C@H](NC(=O)[C@H](Cc1ccccc1)NC(=O)[C@H](CCC(=O)O)NC(=O)[C@H](CCCCN)NC(=O)[C@H](C)NC(=O)[C@H](C)NC(=O)[C@H](CCC(N)=O)NC(=O)CNC(=O)[C@H](CCC(=O)O)NC(=O)[C@H](CC(C)C)NC(=O)[C@H](Cc1ccc(O)cc1)NC(=O)[C@H](CO)NC(=O)[C@H](CO)NC(=O)[C@@H](NC(=O)[C@H](CC(=O)O)NC(=O)[C@H](CO)NC(=O)[C@@H](NC(=O)[C@H](Cc1ccccc1)NC(=O)[C@@H](NC(=O)CNC(=O)[C@@H](N)CCC(=O)O)[C@@H](C)O)[C@@H](C)O)C(C)C)C(=O)N[C@@H](C)C(=O)N[C@@H](Cc1c[nH]c2ccccc12)C(=O)N[C@@H](CC(C)C)C(=O)N[C@H](C(=O)N[C@@H](CCCCN)C(=O)NCC(=O)N[C@@H](CCCNC(=N)N)C(N)=O)C(C)C [GLP-1(9–36)],efficacy of GoA dissociation relative to glucagon,"[1]; GCGR, GoA, HEK293T",~ 10%
same,EC50,"[1]; Gα i2, mean ± S.E.M.",501 nM
same,pEC50,"[1]; Gα oA, mean ± S.E.M.",7.55±-0.52
same,time at which reduction of docked granules was maximal,mouse alpha cells; 10 pmol/l,10 min
same,reduction of the number of docked granules,"mouse alpha cells; 10 pmol/l, 1 mmol/l glucose, mouse alpha cells",40%
same,"how granule density was reduced (docking, undocking, arrival)","mouse alpha cells; 10 pmol/l, during 15 min","inhibiting granule docking and stimulating granule undocking, while not affecting the rate of arrival"
same,capacity to reduce docked granules in the presence of L-168049,mouse alpha cells; L-168049 100 nmol/l,prevented
same,capacity to reduce docked granules after PTX pretreatment,mouse alpha cells; PTX 100 ng/ml for 16 h,prevented
same,capacity to reduce docked granules in the presence of exendin(9–39),"mouse alpha cells; exendin(9–39) 100 nmol/l, 15 min after addition",resistant
same,effect on granule docking in the presence of ω-agatoxin,mouse alpha cells; ω-agatoxin 200 nmol/l,no additive effect
same,decrease of plasma glucagon AUC during hypoglycaemia,"C57Bl6N mice; 100 µg/kg i.p. at t=−15 min, AUC over 45 min after insulin, 13 or 14 mice",30% and ~ 30%
same,effect on hypoglycaemia-triggered increase in plasma glucagon,"C57Bl6N mice; 100 µg/kg i.p. at t=−15 min, insulin 0.75 U/kg",slightly reduced
same,glucagonostatic effect when administered simultaneously with insulin,"C57Bl6N mice; co-injected with insulin 0.75 U/kg, p=0.53",No glucagonostatic effect
same,glucagonostatic effect in the presence of REMD2.59,"C57Bl6N mice; mice pretreated with REMD2.59, GLP-1(9–36) 100 µg/kg",no glucagonostatic effect
same,effect on basal plasma glucagon,"C57Bl6N mice; normoglycaemic conditions, prior to insulin injection, 100 µg/kg i.p.",not affected
same,inhibition of glucagon secretion,"human pancreatic islets; human islets, 10 pmol/l, 1 mmol/l glucose",~ 50%
same,glucagonostatic effect,"human pancreatic islets; human islets, 6 mmol/l glucose",exerted a glucagonostatic effect
same,glucagonostatic effect,"human pancreatic islets; human islets, 20 mmol/l glucose",not at 20 mmol/l glucose
same,suppression of glucagon release in islets from donors with type 2 diabetes,human pancreatic islets; islets from donors with type 2 diabetes,loss
